Structures can show the parent of a compound that is named as a salt.
Legend:
Assay type in all cases: biochemical
[1] = target: T1, unphosphorylated VEGF-R2Δ50 (FLVK) (Homo sapiens, UniProt P35968, DEL940-989/E990V); test: VEGF-R2 coupled spectrophotometric assay, unphosphorylated enzyme (FLVK); settings: Table 3; for Ki: some entries 'Slow binder'; for inhibition at 0.05 µM: at 50 nM
T1 construct: VEGF-R2Δ50 contains residues 806-939 and 990-1171; made in house; host or cells: baculovirus/insect cells
Text: VEGF-R2 Construct for Assay: This construct determines the ability of a test compound to inhibit tyrosine kinase activity. A construct (VEGF-R2Δ50) of the cytosolic domain of human vascular endothelial growth factor receptor 2 (VEGF-R2) lacking the 50 central residues of the 68 residues of the kinase insert domain was expressed in a baculovirus/insect cell system. Of the 1356 residues of full-length VEGF-R2, VEGF-R2Δ50 contains residues 806-939 and 990-1171, and also one point mutation (E990V) within the kinase insert domain relative to wild-type VEGF-R2. Autophosphorylation of the purified construct was performed by incubation of the enzyme at a concentration of 4 μM in the presence of 3 mM ATP and 40 mM MgCl2 in 100 mM Hepes, pH 7.5, containing 5% glycerol and 5 mM DTT, at 4° C. for 2 h. […] See Parast et al., Biochemistry, 37, 16788-16801 (1998).
The production of ADP from ATP that accompanies phosphoryl transfer was coupled to oxidation of NADH using phosphoenolpyruvate (PEP) and a system having pyruvate kinase (PK) and lactic dehydrogenase (LDH). The oxidation of NADH was monitored by following the decrease of absorbance at 340 nm (e340=6.22 cm^−1 mM^−1) using a Beckman DU 650 spectrophotometer. Assay conditions for phosphorylated VEGF-R2Δ50 (indicated as FLVK-P in the tables below) were the following: 1 mM PEP; 250 μM NADH; 50 units of LDH/mL; 20 units of PK/mL; 5 mM DTT; 5.1 mM poly(E4Y1); 1 mM ATP; and 25 mM MgCl2 in 200 mM Hepes, pH 7.5. Assay conditions for unphosphorylated VEGF-R2Δ50 (indicated as FLVK in the tables) were the following: 1 mM PEP; 250 μM NADH; 50 units of LDH/mL; 20 units of PK/mL; 5 mM DTT; 20 mM poly(E4Y1); 3 mM ATP; and 60 mM MgCl2 and 2 mM MnCl2 in 200 mM Hepes, pH 7.5. Assays were initiated with 5 to 40 nM of enzyme. Ki values were determined by measuring enzyme activity in the presence of varying concentrations of test compounds. The data were analyzed using Enzyme Kinetic and Kaleidagraph software.

FL-CHK1 = target: T2, FL-CHK1 (Homo sapiens, UniProt O14757); test: CHK1 assay; settings: 20 μM; combinatorial library compounds
T2 construct: C-terminally His-tagged full-length human CHK1 (FL-CHK1); 6xHis (C); made in house; host or cells: baculovirus/insect cells
T2 sequence (O14757 1-476): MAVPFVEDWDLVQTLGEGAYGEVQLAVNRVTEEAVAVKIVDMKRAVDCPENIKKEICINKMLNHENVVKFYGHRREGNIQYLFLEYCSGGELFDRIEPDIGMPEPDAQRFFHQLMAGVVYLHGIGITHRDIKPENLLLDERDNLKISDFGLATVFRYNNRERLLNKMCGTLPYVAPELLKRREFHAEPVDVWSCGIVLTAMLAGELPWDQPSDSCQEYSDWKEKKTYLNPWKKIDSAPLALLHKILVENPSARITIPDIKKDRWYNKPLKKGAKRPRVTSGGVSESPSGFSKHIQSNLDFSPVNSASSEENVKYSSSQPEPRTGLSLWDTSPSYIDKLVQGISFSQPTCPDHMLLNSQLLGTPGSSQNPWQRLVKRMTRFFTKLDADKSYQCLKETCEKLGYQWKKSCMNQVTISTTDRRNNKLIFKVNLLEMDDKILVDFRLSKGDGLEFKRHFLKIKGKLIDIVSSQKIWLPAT
Outline: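 Full-length human CHK1 with C-terminal 6×His tag, made in baculovirus/insect cells, 10 nM, phosphorylating 0.125 mM Syntide-2 with 0.15 mM ATP in 50 mM Tris pH 7.5, 25 mM MgCl2, 400 mM NaCl. PK/LDH-coupled NADH oxidation read at 340 nm. Ki from initial rates over varied compound concentrations.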

CDK2/Cyclin A complex = CDK2/Cyclin A complex (Homo sapiens, UniProt P24941); test: CDK2/Cyclin A assay; settings: 1.0 μM; combinatorial library compounds
Outline: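 Radiometric assay: 150 nM CDK2/cyclin A (insect-cell CDK2, truncated cyclin A) phosphorylates His-tagged Rb fragment (residues 386-928) with 25 μM ATP plus [32P]ATP, pH 7.4 HEPES, 2% DMSO, 30 °C for 20 min. Filter-captured product counted by phosphorimager; apparent Ki from competitive or tight-binding inhibition fits.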

CDK4/Cyclin D3 complex = target: T3, CDK4/Cyclin D3 complex (Homo sapiens, UniProt P11802); test: CDK4/Cyclin D assay; settings: 1.0 μM; combinatorial library compounds
T3 construct: made in house; host or cells: insect cells co-infected with baculovirus vectors
Outline: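 Insect-cell-expressed CDK4/cyclin D3 (50 nM) phosphorylating His-tagged Rb fragment (residues 386-928) with 25 μM [^32P]ATP in HEPES pH 7.4, MgCl2, 2% DMSO; 20 min at 30 °C, EDTA stop. Filter-captured 32P by phosphorimager; apparent Ki from competitive or tight-binding inhibition fits.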

[2] = target: T4, phosphorylated VEGF-R2Δ50 (FLVK-P) (Homo sapiens, UniProt P35968, DEL940-989/E990V); test: VEGF-R2 coupled spectrophotometric (FLVK-P) assay; settings: combinatorial library compounds; for inhibition at 20 µM: read-out: VEGF % inhibition at 20 μM, 20 μM
T4 construct: VEGF-R2Δ50 contains residues 806-939 and 990-1171; made in house; host or cells: baculovirus/insect cells
Outline: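 Baculovirus-expressed human VEGF-R2Δ50 (residues 806-939/990-1171, E990V) was autophosphorylated with 3 mM ATP, 40 mM MgCl2 for 2 h at 4° C. ADP formation was coupled via PK/LDH to NADH oxidation, read at 340 nm, with 5.1 mM poly(E4Y1), 1 mM ATP, 25 mM MgCl2, Hepes pH 7.5. Ki came from activity across compound concentrations.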

T3 sequence (P11802 whole entry): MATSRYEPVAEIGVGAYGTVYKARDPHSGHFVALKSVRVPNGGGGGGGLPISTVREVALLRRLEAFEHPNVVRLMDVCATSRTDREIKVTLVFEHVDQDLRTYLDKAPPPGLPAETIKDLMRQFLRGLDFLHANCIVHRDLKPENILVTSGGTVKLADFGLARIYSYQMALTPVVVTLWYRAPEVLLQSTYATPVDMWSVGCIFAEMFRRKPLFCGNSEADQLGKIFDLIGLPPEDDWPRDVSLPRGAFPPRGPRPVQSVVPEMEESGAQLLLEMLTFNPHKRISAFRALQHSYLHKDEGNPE
T3 sequence (P30281 whole entry partner): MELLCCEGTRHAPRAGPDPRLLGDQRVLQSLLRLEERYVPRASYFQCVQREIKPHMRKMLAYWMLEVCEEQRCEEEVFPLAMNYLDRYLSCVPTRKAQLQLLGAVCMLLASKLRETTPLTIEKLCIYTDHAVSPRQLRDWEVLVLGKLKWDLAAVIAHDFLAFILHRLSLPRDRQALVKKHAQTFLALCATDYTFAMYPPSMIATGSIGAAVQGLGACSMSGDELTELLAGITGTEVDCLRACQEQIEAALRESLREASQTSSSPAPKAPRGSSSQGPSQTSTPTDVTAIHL
T4 sequence (P35968 with tags, fused parts or gaps DEL940-989/E990V limits assumed): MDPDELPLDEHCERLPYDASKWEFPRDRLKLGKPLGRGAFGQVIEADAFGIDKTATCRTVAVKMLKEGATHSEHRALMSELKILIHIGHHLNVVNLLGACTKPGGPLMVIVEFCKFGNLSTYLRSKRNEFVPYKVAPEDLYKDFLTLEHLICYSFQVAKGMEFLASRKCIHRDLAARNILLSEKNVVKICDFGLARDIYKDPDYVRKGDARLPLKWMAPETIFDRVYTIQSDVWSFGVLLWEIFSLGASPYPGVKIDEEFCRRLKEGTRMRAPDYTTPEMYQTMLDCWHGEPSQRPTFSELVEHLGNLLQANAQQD
T1 sequence (P35968 with tags, fused parts or gaps DEL940-989/E990V limits assumed): as above

Cc1ccc(NC(=O)C(O)CC(C)C)cc1-c1noc(-c2sc(Nc3cccc(CN4CCCC4)c3)nc2N)n1 (racemic) [B(11), (R,S)-3-[3-(2-hydroxy-4-methylpentanoyl)amino]-6-methylphenyl]-5-[2-(3-methylpyrrolidinephenyl)amino]-4-amino-5-thiazolyl]-1,2,4 oxadiazole]
Ki [1]: 0.7 nM

COc1cc(Nc2nc(N)c(-c3nc(-c4cc(NC(=O)OC(C)(C)C)ccc4F)no3)s2)cc(OC)c1OC [B(5), 3-(3-(tert-butyloxycarboxyamino)-6-fluoro-phenyl)-5-[2-[(3,4,5-trimethoxyphenyl)amino]-4-amino-5-thiazolyl]-1,2,4-oxadiazole]
Ki [1]: 2.3 nM

COc1cccc(C(=O)Nc2ccc(C)c(-c3noc(-c4sc(Nc5ccc(N(C)C)cc5)nc4N)n3)c2)c1 [B(7), 3-[3-[(3-methoxybenzoyl)amino]-6-methyl-phenyl]-5-[2-[4-(N,N-dimethylaminophenyl)amino]-4-amino-5-thiazolyl]-1,2,4-oxadiazole]
inhibition at 0.05 µM [1]: 61%

CCn1nc(C)cc1C(=O)Nc1ccc(C)c(-c2noc(-c3sc(Nc4cccc(CO)c4)nc3N)n2)c1 [B(8)]
Ki [1]: 0.1 nM

CCn1nc(C)cc1C(=O)Nc1ccc(C)c(-c2noc(-c3sc(Nc4ccc(CN5CCCC5)cc4)nc3N)n2)c1 [B(10)]
Ki [1]: 0.13 nM

COc1cccc(C(=O)Nc2cc(-c3noc(-c4sc(NC(C)C)nc4N)n3)c(F)cc2F)c1 [B(19), N-{5-[5-(4-Amino-2-isopropylamino-thiazol-5-yl)-[1,2,4]oxadiazol-3-yl]-2,4-difluoro-phenyl}-3-methoxy-benzamide]
inhibition at 0.05 µM [1]: 36%

COc1cccc(C(=O)Nc2cc(-c3noc(-c4sc(Nc5cccnc5)nc4N)n3)c(F)cc2F)c1 [B(20), N-(5-{5-[4-Amino-2-(pyridin-3-ylamino)-thiazol-5-yl]-[1,2,4]oxadiazol-3-yl}-2,4-difluoro-phenyl)-3-methoxy-benzamide-TFA salt]
FLVK % inhibition ([1]; concentration not given): 80%

Cc1ccc(NC(=O)OC(C)(C)C)cc1-c1noc(-c2sc(Nc3ccccc3)nc2N)n1 [B(23)]
Ki [1]: 1.7 nM

Cc1ccc(NC(=O)OC(C)(C)C)cc1-c1noc(-c2sc(Nc3ccc4nc[nH]c4c3)nc2N)n1 [B(24)]
Ki [1]: 2.1 nM

COc1ccc(NC(=O)OC(C)(C)C)cc1-c1noc(-c2sc(Nc3cc(OC)c(OC)c(OC)c3)nc2N)n1 [B(25)]
Ki [1]: 29 nM

CCn1nc(C)cc1C(=O)Nc1ccc(C)c(-c2noc(-c3sc(Nc4ccccc4)nc3N)n2)c1 [B(26)]
Ki [1]: 2.8 nM

CCn1nc(C)cc1C(=O)Nc1ccc(C)c(-c2noc(-c3sc(Nc4ccc(N5CCN(C)CC5)nc4)nc3N)n2)c1 [B(27)]
Ki [1]: 0.3 nM

COc1cccc(C(=O)Nc2cc(-c3noc(-c4sc(Nc5ccc(N6CCN(C)CC6)nc5)nc4N)n3)c(C)cc2Cl)c1 [B(28)]
Ki [1]: 3 nM

Cc1ccc(NC(=O)C(O)CC(C)C)cc1-c1noc(-c2sc(Nc3ccc(N4CCN(C)CC4)nc3)nc2N)n1 (centres unmarked) [B(29)]
Ki [1]: 0.9 nM

C/C=C(/C)C(=O)Nc1ccc(C)c(-c2noc(-c3sc(Nc4ccc(N5CCN(C)CC5)nc4)nc3N)n2)c1 [B(31)]
Ki [1]: 5.1 nM

COc1cc(F)c(-c2noc(-c3sc(Nc4cc(OC)c(OC)c(OC)c4)nc3N)n2)cc1NC(=O)OC(C)(C)C [B(41)]
inhibition at 0.05 µM [1]: 0%

COC(=O)c1cccc(-c2noc(-c3sc(Nc4cc(OC)c(OC)c(OC)c4)nc3N)n2)c1 [B(42)]
inhibition at 0.05 µM [1]: 12%

COc1cc(Nc2nc(N)c(-c3nc(-c4cccc(C(=O)O)c4)no3)s2)cc(OC)c1OC [B(43)]
inhibition at 0.05 µM [1]: 11%

COc1cc(Nc2nc(N)c(-c3nc(-c4cc(N)ccc4F)no3)s2)cc(OC)c1OC [C(4), 3-[3-amino-6-fluorophenyl]-5-[2-[(3,4,5-trimethoxyphenyl)amino]-4-amino-5-thiazolyl]-1,2,4-oxadiazole]
inhibition at 0.05 µM [1]: 3%

COc1cc(F)c(-c2noc(-c3sc(Nc4cc(OC)c(OC)c(OC)c4)nc3N)n2)cc1N [C(5), 3-[2-fluoro-4-methoxy-5-aminophenyl]-5-[2-[(3,4,5-trimethoxyphenyl)amino]-4-amino-5-thiazolyl]-1,2,4-oxadiazole]
inhibition at 0.05 µM [1]: 15%

COc1cc(Nc2nc(N)c(-c3nc(-c4cccc(NC(=O)c5cccc(C(N)=O)c5)c4)no3)s2)cc(OC)c1OC [D(71)]
Ki [1]: 4.1 nM

COc1cc(Nc2nc(N)c(-c3nc(-c4cccc(NC(=O)c5ccc(CN6CCN(C)CC6)cc5)c4)no3)s2)cc(OC)c1OC [D(77)]
Ki [1]: 2.6 nM

CC(C)c1ccc(Nc2nc(N)c(-c3nc(-c4ccccc4)cs3)s2)cc1 [drawing 498]
CHK1 % Inhibition at 20 μM (FL-CHK1): 0.2%
CDK2 % Inhibition at 1.0 μM (CDK2/Cyclin A complex): 18.5%
CDK4 % Inhibition at 1.0 μM (CDK4/Cyclin D3 complex): 59.4%
VEGF % inhibition at 20 μM [2]: 22%

COc1ccc(-c2csc(-c3sc(Nc4ccc(N(C)C)cc4)nc3N)n2)cc1 [drawing 525]
CHK1 % Inhibition at 20 μM (FL-CHK1): 2.7%
CDK2 % Inhibition at 1.0 μM (CDK2/Cyclin A complex): 6.1%
CDK4 % Inhibition at 1.0 μM (CDK4/Cyclin D3 complex): 19.1%
inhibition at 20 µM [2]: 13%

CN(C)c1ccc(Nc2nc(N)c(-c3nc(-c4ccccc4)cs3)s2)cc1 [drawing 547]
inhibition at 20 µM (FL-CHK1): 13.1%
inhibition at 1 µM (CDK2/Cyclin A complex): 17.2%
CDK4 % Inhibition at 1.0 μM (CDK4/Cyclin D3 complex): −48.3%
inhibition at 20 µM [2]: 17%

Cc1c(-c2csc(-c3sc(Nc4ccc(N(C)C)cc4)nc3N)n2)sc2ccc(Cl)cc12 [drawing 550]
inhibition at 20 µM (FL-CHK1): 41.9%
CDK2 % Inhibition at 1.0 μM (CDK2/Cyclin A complex): 17.1%
inhibition at 1 µM (CDK4/Cyclin D3 complex): 64.3%
inhibition at 20 µM [2]: 31%

COc1ccc(-c2csc(-c3sc(Nc4ccc(N(C)C)cc4)nc3N)n2)cc1 [drawing 551]
CHK1 % Inhibition at 20 μM (FL-CHK1): 34.8%
CDK2 % Inhibition at 1.0 μM (CDK2/Cyclin A complex): 29.8%
CDK4 % Inhibition at 1.0 μM (CDK4/Cyclin D3 complex): 83%
VEGF % inhibition at 20 μM [2]: 23%

Cc1c(-c2csc(-c3sc(Nc4ccc(N(C)C)cc4)nc3N)n2)sc2ccc(Cl)cc12 [drawing 552]
CHK1 % Inhibition at 20 μM (FL-CHK1): 26.8%
CDK2 % Inhibition at 1.0 μM (CDK2/Cyclin A complex): 37.3%
CDK4 % Inhibition at 1.0 μM (CDK4/Cyclin D3 complex): 65.1%
VEGF % inhibition at 20 μM [2]: 29%

CN(C)c1ccc(Nc2nc(N)c(-c3nc(-c4ccccc4)cs3)s2)cc1 [drawing 561]
CHK1 % Inhibition at 20 μM (FL-CHK1): 17.5%
CDK2 % Inhibition at 1.0 μM (CDK2/Cyclin A complex): 19.7%
CDK4 % Inhibition at 1.0 μM (CDK4/Cyclin D3 complex): 65.1%
VEGF % inhibition at 20 μM [2]: 30%

— patent US6620828B2, “Thiazole compounds and pharmaceutical compositions for inhibiting protein kinases and methods for their use” (Agouron Pharmaceuticals, Inc., priority 1999, dated 2003)
